The text below walks through data of PMC5915530, “Immunosilencing peptides by stereochemical inversion and sequence reversal: retro-D-peptides” (Scientific Reports, 2018).

Non-standard residues stand in square brackets, D forms with d. Residues, ends and D or L forms follow the SMILES beside them.

Series [1] deals with blood-brain barrier (BBB). The conditions noted are these: parent versions, in several studies; ref not given; cited from earlier work. From the text: (§1) We have applied this previously described strategy to a family of peptide BBB shuttles (H2N-HAIYPRH-CONH2 and H2N-THRPPMWSPVWP-CONH2[14], namely HAI and THR peptides, respectively). BBB shuttles are molecular entities of diverse origin, e.g. synthetic or natural peptides, which have the capacity to cross the blood-brain barrier (BBB) and, when covalently conjugated to drugs unable to cross the BBB unaided, can deliver them into the central nervous system (CNS)[15]. Those that cross through receptor-mediated transcytosis are also included in the term ‘molecular Trojan horses’[16],[17]. Although ...

Series [2] can be described thus: Protease resistance. The class given is in vitro ADME. The conditions noted are these: as stated in abstract. The method, then:
Data were processed using GraphPad Prism 6.0 software. All results are presented as mean + SEM. Data from human serum stability assays were analyzed as non-linear one-phase exponential decay model for L-peptides and as standard linear model with zero slope for D-peptides. Deviations from a value of 100 at each dilution point were assessed using a linear model, in which group and interaction were included as covariates. In immune response studies, each dilution point (in ELISAs) was analyzed by a Mann-Whitney test to assess differences between S0 with S1 or S2. In both cases, 5% was set as a threshold for statistical significance.

For series [3] the following is noted: demonstrated earlier by the authors' laboratory; ref 21 (printed for retro-D-THR); cited from earlier work.
Source text: as §1

Series [4] has as its system BALB/c mice. Description: Mouse immunization with unconjugated peptides, titration of peptide-specific antibodies in serum by ELISA. Type of series: in vivo. The note with it: seven i.p. doses of 50 μg, BALB/c mice (four per group), CFA first dose, IFA boosters, PBS last, ELISA on peptide-BSA conjugate, serum diluted from 1:100, anti-Mouse IgG-HRP, read at 450 nm, Fig. 3a, b. From the text:
To date, several studies have used D-peptides as tools for vaccine development. In these cases the peptides have been conjugated to large supramolecular entities, e.g. KLH and small unilamelar liposomes containing monophosphoryl lipid A[23],[24]. Nevertheless, the use of retro-D-peptides as therapeutics was controversial twenty years ago[25],[26]. Thus, to shed light on the immunogenicity of D-peptides and add further value to these compounds, we evaluated the immunological responses activated by retro-D-THR and retro-D-HAI peptides and compared them to that of their parent peptides. For this purpose, peptides (not conjugated) were i.p. administered to mice, and antibody titration was used as parameter to evaluate immunological (humoral) response by ELISA.
Four groups of four BALB/c mice were treated with either one of the parent peptides or their retro-D-version. Each mouse received seven doses i.p. of 50 μg of peptide. Complete Freund’s[49] adjuvant (CFA) was administered in the first dose, incomplete Freund’s adjuvant (IFA) in the subsequent five booster injections, and PBS in the last one. Bleedings for the titration of specific antibody production were performed before the first dose (time zero bleeding) and five days after the fourth and last dose (Supplementary Scheme 1). The peptide-specific humoral response was quantified by ELISA. MaxiSorp plates (Nunc) were treated with 0.1 mL of the corresponding peptide-BSA conjugate (1 μg) per well in carbonate buffer, overnight at 4 °C (Supplementary Fig. 6b). Afterwards, plates were blocked with 0.2 mL PBS-Tween 20 (T20) containing 2% of milk powder for 2 h a 37 °C. Each sample serum was consecutively diluted 1/2 (starting by dilution 1:100) in PBS-T20 and incubated for 1 h at 37 °C. Incubation with a secondary antibody (dil. 1/5,000) anti-Mouse IgG-HRP (ref. R1253HRP; batch 26922; Acris) was left for 1 h at 37 °C. Washes (x3) with PBST (300 μl/well) were applied after each antibody incubation. Finally, TMB (100 μl/well) was added and left for 30 min, when the stop solution (100 μl, HClaq 1 N) blocked the colorimetric reaction. Plates were read at 450 nm (Fig. 3a–c). […]
Data were processed using GraphPad Prism 6.0 software. […] Data from human serum stability assays were analyzed as non-linear one-phase exponential decay model for L-peptides and as standard linear model with zero slope for D-peptides. Deviations from a value of 100 at each dilution point were assessed using a linear model, in which group and interaction were included as covariates. In immune response studies, each dilution point (in ELISAs) was analyzed by a Mann-Whitney test to assess differences between S0 with S1 or S2. […]
A general note: ELISA stands for enzyme-linked immunosorbent assay.

In the case of “H2N-THRPPMWSPVWP-CONH2 (H-THRPPMWSPVWP-NH2) [parent L-peptide BBB shuttle, H2N-…-CONH2]”, the BBB permeability entry in series [1] is “efficient BBB permeability”.
In the case of “H2N-HAIYPRH-CONH2 [parent L-peptide BBB shuttle, H2N-HAIYPRH-CONH2]”, the BBB permeability entry in series [1] is “efficient BBB permeability”.
`CC[C@@H](C)[C@@H](NC(=O)[C@@H](Cc1ccc(O)cc1)NC(=O)[C@H]1CCCN1C(=O)[C@@H](CCCNC(=N)N)NC(=O)[C@H](N)Cc1c[nH]cn1)C(=O)N[C@H](C)C(=O)N[C@H](Cc1c[nH]cn1)C(N)=O` [retro-D-HAI]: the protease resistance entry in series [2] is “protease-resistant”. Further, the protease-resistance entry in series [3] was “protease-resistance”. Moreover, the “immunogenicity (peptide-specific humoral response, antibody titration)” value is “not immunogenic per se” in series [4] and “much less immunogenic than the parent peptide” in series [4] (listed as H2N-hrpyiah-CONH2).
On to `CSCC[C@@H](NC(=O)[C@@H](Cc1c[nH]c2ccccc12)NC(=O)[C@@H](CO)NC(=O)[C@H]1CCCN1C(=O)[C@H](NC(=O)[C@@H](Cc1c[nH]c2ccccc12)NC(=O)[C@H]1CCCN1)C(C)C)C(=O)N1CCC[C@@H]1C(=O)N1CCC[C@@H]1C(=O)N[C@H](CCCNC(=N)N)C(=O)N[C@H](Cc1c[nH]cn1)C(=O)N[C@@H](C(N)=O)[C@H](C)O` [retro-D-THR] (H-[dP][dW][dV][dP][dS][dW][dM][dP][dP][dR][dH][dT]-NH2), for which, in series [2], the protease resistance entry was “protease-resistant”. Further, the protease-resistance result in series [3] is on record as “protease-resistance”. Besides, the figures for the “immunogenicity (peptide-specific humoral response, antibody titration)” value in series [4] and in series [4] (listed as H2N-pwvpswmpprht-CONH2) were “not immunogenic per se” and “much less immunogenic than the parent peptide”, respectively.
